Source: ChEMBL document CHEMBL1156075, “5,5'- and 6,6'-dialkyl-5,6-dihydro-1H-pyridin-2-ones as potent inhibitors of HCV NS5B polymerase” (Bioorg Med Chem Lett, 2009)

How the values were obtained:
[1] = Apparent permeability from apical to basolateral side in human Caco-2 cells at 10 uM after 3 hrs; assay type: ADME, cell-based
[2] = Oral bioavailability in cynomolgus monkey at 1 mg/kg, po; assay type: ADME, organism-based, Macaca fascicularis; settings: in vivo
[3] = Clearance in cynomolgus monkey at 1 […]; assay type: ADME, organism-based, Macaca fascicularis; parameters: dose 1 mg/kg; settings: in vivo
[4] = Clearance in cynomolgus monkey at 1 mg/kg, iv; assay type: ADME, organism-based, Macaca fascicularis; parameters: dose 1 mg/kg, route intravenous; settings: in vivo
Cynomolgus monkey [5] = settings: in vivo, po, 1 mg/kg
Cynomolgus monkey [6] = settings: in vivo, iv, 1 mg/kg
in vitro [7] = settings: human, Huh7/C24 cells
Description: Cytotoxicity against human Huh7/C24 cells after 72 hrs by bDNA assay

in vitro [8] = settings: human, liver microsomes
in vitro [9] = settings: cynomolgus monkey, liver microsomes
Hepatitis C virus = test: microbe, parasite or virus in culture; settings: genotype 1b, Huh-7, 72 h
in vitro [10] = settings: human, liver microsomes; remark: listed apart in the source
in vitro [11] = settings: human, liver microsomes; remark: listed apart in the source

Row | SMILES | half-life at 5 µM (in vitro [8]) | EC50 (Hepatitis C virus) | CC50 at 72 h (in vitro [7]) | further results
1 | CC(C)C[C@@H]1CC(O)=C(C2=NS(=O)(=O)c3cc(NS(C)(=O)=O)ccc3N2)C(=O)N1Cc1ccc(F)cc1 | > 60 min | 2.9 µM |  | 
2 | CC[C@@H]1CC(O)=C(C2=NS(=O)(=O)c3cc(NS(C)(=O)=O)ccc3N2)C(=O)N1Cc1ccc(F)cc1 | > 60 min | 0.97 µM |  | 
3 | CC(C)CC[C@]1(C)CN(C2CCCC2)C(=O)C(C2=NS(=O)(=O)c3cc(NS(C)(=O)=O)ccc3N2)=C1O | > 2.6 min |  | > 33 µM | 
4 | CC(C)(C)CC[C@]1(C)CN(C2CCCCC2)C(=O)C(C2=NS(=O)(=O)c3cc(NS(C)(=O)=O)ccc3N2)=C1O |  | 1.4 µM | > 10 µM | half-life at 5 µM (in vitro [10]): > 60 min; half-life at 5 µM (in vitro [11]): 1.4 min
5 | CC(C)=CC[C@H]1CN(Cc2ccc(F)cc2)C(=O)C(C2=NS(=O)(=O)c3cc(NS(C)(=O)=O)ccc3N2)=C1O | 6.9 min | 0.67 µM | > 33 µM | 
6 | CC(C)CC[C@@]1(C)CN(Cc2ccc(F)cc2)C(=O)C(C2=NS(=O)(=O)c3cc(NS(C)(=O)=O)ccc3N2)=C1O | 5.7 min | 0.77 µM | > 33 µM | 
7 | CS(=O)(=O)Nc1ccc2c(c1)S(=O)(=O)N=C(C1=C(O)C3(CCCC3)CN(Cc3ccc(F)cc3)C1=O)N2 | 28 min | 2.1 µM | > 33 µM | 
8 | CS(=O)(=O)Nc1ccc2c(c1)S(=O)(=O)N=C(C1=C(O)CC3(CCCC3)N(Cc3ccc(F)cc3)C1=O)N2 | > 60 min | 0.84 µM | > 33 µM | 
9 | CC(C)CC[C@@H]1CC(O)=C(C2=NS(=O)(=O)c3cc(NS(C)(=O)=O)ccc3N2)C(=O)N1Cc1ccc(F)cc1 | 7.6 min | 5.5 µM |  | 
10 | C[C@@]1(Cc2ccc(F)cc2)CN(C2CC2)C(=O)C(C2=NS(=O)(=O)c3cc(NS(C)(=O)=O)ccc3N2)=C1O |  | 2.1 µM | > 33 µM | 
11 | CC1(C)CN(Cc2ccc(F)cc2)C(=O)C(C2=NS(=O)(=O)c3cc(NS(C)(=O)=O)ccc3N2)=C1O | > 60 min | 1.3 µM | > 33 µM | 
12 | CCC[C@]1(C)CN(C2CCC2)C(=O)C(C2=NS(=O)(=O)c3cc(NS(C)(=O)=O)ccc3N2)=C1O |  | 8.5 µM |  | half-life at 5 µM (in vitro [10]): > 60 min; half-life at 5 µM (in vitro [11]): 2.8 min
13 | CC(C)CC[C@]1(C)CN(c2ccccc2)C(=O)C(C2=NS(=O)(=O)c3cc(NS(C)(=O)=O)ccc3N2)=C1O | > 2.3 min |  |  | 
14 | CS(=O)(=O)Nc1ccc2c(c1)S(=O)(=O)N=C(C1=C(O)C3(CCC3)CN(Cc3ccc(F)cc3)C1=O)N2 | > 60 min | 0.77 µM | > 33 µM | 
15 | CC(C)(C)[C@H]1CC(O)=C(C2=NS(=O)(=O)c3cc(NS(C)(=O)=O)ccc3N2)C(=O)N1Cc1ccc(F)cc1 | > 60 min | 0.81 µM | > 10 µM | 
16 | CCCC[C@]1(C)CN(C2CCC2)C(=O)C(C2=NS(=O)(=O)c3cc(NS(C)(=O)=O)ccc3N2)=C1O |  | > 10 µM |  | half-life at 5 µM (in vitro [10]): > 60 min; half-life at 5 µM (in vitro [11]): 3 min
17 | CS(=O)(=O)Nc1ccc2c(c1)S(=O)(=O)N=C(C1=C(O)[C@@H](Cc3ccc(F)cc3)CN(Cc3ccc(F)cc3)C1=O)N2 | > 60 min | 3.6 µM | > 33 µM | 
18 | C[C@@]1(Cc2ccc(F)cc2)CN(C2CCCC2)C(=O)C(C2=NS(=O)(=O)c3cc(NS(C)(=O)=O)ccc3N2)=C1O |  | 14 µM | > 33 µM | 
19 | C#CC[C@]1(C)CN(C2CCCC2)C(=O)C(C2=NS(=O)(=O)c3cc(NS(C)(=O)=O)ccc3N2)=C1O | 43 min | 2.9 µM | > 33 µM | 
20 | CS(=O)(=O)Nc1ccc2c(c1)S(=O)(=O)N=C(C1=C(O)CCN(Cc3ccc(F)cc3)C1=O)N2 | > 60 min | 3.9 µM | > 33 µM | 

Second part, led by results:

Row | half-life at 5 µM (in vitro [8]) | EC50 (Hepatitis C virus) | SMILES | CC50 at 72 h (in vitro [7]) | further results
21 | > 60 min | 0.016 µM | CS(=O)(=O)Nc1ccc2c(c1)S(=O)(=O)N=C(C1=C(O)[C@@H]3CCC[C@@H]3N(Cc3ccc(F)cc3)C1=O)N2 | > 100 µM | Papp A→B at 3 h, 10 µM [1]: 1.6 ×10⁻⁶ cm/s; bioavailability [2]: 21%; CL/F [3]: 0.63 mL/min/kg; clearance [4]: 0.63 mL/min/kg; AUC (Cynomolgus monkey [5]): 6040 ng·h/mL; AUC (Cynomolgus monkey [6]): 29100 ng·h/mL; half-life at 5 µM (in vitro [9]): > 60 min
22 |  | 0.15 µM | C[C@@]1(CCC2CC2)CN(C2CCC2)C(=O)C(C2=NS(=O)(=O)c3cc(NS(C)(=O)=O)ccc3N2)=C1O | > 1 µM | half-life at 5 µM (in vitro [10]): > 60 min; half-life at 5 µM (in vitro [11]): 5.1 min
23 | 5.5 min | 0.097 µM | CC(C)CC[C@]1(C)CN(C2CC2)C(=O)C(C2=NS(=O)(=O)c3cc(NS(C)(=O)=O)ccc3N2)=C1O | > 33 µM | 
24 | > 3.6 min | 0.025 µM | CC(C)CC[C@]1(C)CN(C2CCCCC2)C(=O)C(C2=NS(=O)(=O)c3cc(NS(C)(=O)=O)ccc3N2)=C1O | > 33 µM | 
25 | 6.5 min | 0.49 µM | CC(C)CC[C@H]1CN(Cc2ccc(F)cc2)C(=O)C(C2=NS(=O)(=O)c3cc(NS(C)(=O)=O)ccc3N2)=C1O | > 33 µM | 
26 |  | 0.46 µM | CC(C)(C)CC[C@]1(C)CN(C2CCC2)C(=O)C(C2=NS(=O)(=O)c3cc(NS(C)(=O)=O)ccc3N2)=C1O | > 1 µM | half-life at 5 µM (in vitro [10]): > 60 min; half-life at 5 µM (in vitro [11]): 3 min
27 | > 60 min | 0.52 µM | CS(=O)(=O)Nc1ccc2c(c1)S(=O)(=O)N=C(C1=C(O)C[C@@H](c3ccc(F)cc3)N(Cc3ccc(F)cc3)C1=O)N2 | > 10 µM | 
28 | > 60 min | 0.083 µM | CC[C@H]1CC(O)=C(C2=Nc3ccc(NS(C)(=O)=O)cc3S(=O)(=O)N2)C(=O)N1Cc1ccc(F)cc1 | > 1 µM | 
29 | 2.2 min | 0.014 µM | CC(C)CC[C@]1(C)CN(C2CCC2)C(=O)C(C2=NS(=O)(=O)c3cc(NS(C)(=O)=O)ccc3N2)=C1O | > 10 µM | Papp A→B at 3 h, 10 µM [1]: 2.9 ×10⁻⁶ cm/s; bioavailability [2]: 16%; CL/F [3]: 4.7 mL/min/kg; clearance [4]: 4.7 mL/min/kg; AUC (Cynomolgus monkey [5]): 556 ng·h/mL; AUC (Cynomolgus monkey [6]): 3560 ng·h/mL; half-life at 5 µM (in vitro [9]): 55 min
30 | 35 min | 0.24 µM | CC(C)/C=C/C[C@@H]1CN(C2CCCC2)C(O)C(C2=NS(=O)(=O)c3cc(NS(C)(=O)=O)ccc3N2)=C1O (stereo not given in full) | > 33 µM | 
31 | 32 min | 0.043 µM | CC(C)CC[C@@H]1CN(C2CCCC2)C(=O)C(C2=NS(=O)(=O)c3cc(NS(C)(=O)=O)ccc3N2)=C1O | > 33 µM | 
32 |  | 0.17 µM | C[C@@]1(CCC2CC2)CN(C2CCCC2)C(=O)C(C2=NS(=O)(=O)c3cc(NS(C)(=O)=O)ccc3N2)=C1O | > 10 µM | half-life at 5 µM (in vitro [10]): > 60 min; half-life at 5 µM (in vitro [11]): 3.7 min
33 | > 60 min | 0.16 µM | CC[C@@]1(C)CN(Cc2ccc(F)cc2)C(=O)C(C2=NS(=O)(=O)c3cc(NS(C)(=O)=O)ccc3N2)=C1O | > 1 µM | 
34 |  | 0.3 µM | CC[C@@]1(CCC(C)C)CN(C2CCCC2)C(=O)C(C2=NS(=O)(=O)c3cc(NS(C)(=O)=O)ccc3N2)=C1O | > 1 µM | half-life at 5 µM (in vitro [10]): > 60 min; half-life at 5 µM (in vitro [11]): 3 min
35 | > 60 min | 0.55 µM | CS(=O)(=O)Nc1ccc2c(c1)S(=O)(=O)N=C(C1=C(O)C3(CC3)CN(Cc3ccc(F)cc3)C1=O)N2 | > 1 µM | 
36 | > 60 min | 0.045 µM | CC(C)[C@H]1CC(O)=C(C2=NS(=O)(=O)c3cc(NS(C)(=O)=O)ccc3N2)C(=O)N1Cc1ccc(F)cc1 | > 1 µM | 
37 |  | 0.31 µM | CC(C)(C)CC[C@]1(C)CN(C2CCCC2)C(=O)C(C2=NS(=O)(=O)c3cc(NS(C)(=O)=O)ccc3N2)=C1O | > 10 µM | half-life at 5 µM (in vitro [10]): > 60 min; half-life at 5 µM (in vitro [11]): 1.6 min
38 | > 60 min | 0.2 µM | C[C@]1(CC2CC2)CN(Cc2ccc(F)cc2)C(=O)C(C2=NS(=O)(=O)c3cc(NS(C)(=O)=O)ccc3N2)=C1O | > 33 µM | 
39 | 59 min | 0.31 µM | CCC(CC)[C@@H]1CC(O)=C(C2=NS(=O)(=O)c3cc(NS(C)(=O)=O)ccc3N2)C(=O)N1Cc1ccc(F)cc1 | > 1 µM | 
40 | 10 min | 0.33 µM | CC(C)(C)CC[C@]1(C)CN(C2CC2)C(=O)C(C2=NS(=O)(=O)c3cc(NS(C)(=O)=O)ccc3N2)=C1O | > 10 µM | 
41 | > 60 min | 0.66 µM | CS(=O)(=O)Nc1ccc2c(c1)S(=O)(=O)N=C(C1=C(O)C[C@H](c3ccccc3)N(Cc3ccc(F)cc3)C1=O)N2 | > 10 µM | 
